Key:
[1] = test system: esophageal, liver and breast cancer cell lines; details: several esophageal, dose-dependent; cited from earlier work
SMYD2 = target: T1, SMYD2 (Homo sapiens, UniProt Q9NRG4); test: SMYD2 Biochemical Assay (3H-SAM, biotinylated peptide substrate, Flashplate); details: IC50 values are an average of n = 1 to n = 50; read-out: SMYD2 Biochem IC50 (μM)*
T1 construct: Full length SMYD2 (NP 064582.2) was cloned; His6 (N, cleaved yes); FLAG (N); made in house; host or cells: Sf9 insect cells
T1 sequence (Q9NRG4 whole entry): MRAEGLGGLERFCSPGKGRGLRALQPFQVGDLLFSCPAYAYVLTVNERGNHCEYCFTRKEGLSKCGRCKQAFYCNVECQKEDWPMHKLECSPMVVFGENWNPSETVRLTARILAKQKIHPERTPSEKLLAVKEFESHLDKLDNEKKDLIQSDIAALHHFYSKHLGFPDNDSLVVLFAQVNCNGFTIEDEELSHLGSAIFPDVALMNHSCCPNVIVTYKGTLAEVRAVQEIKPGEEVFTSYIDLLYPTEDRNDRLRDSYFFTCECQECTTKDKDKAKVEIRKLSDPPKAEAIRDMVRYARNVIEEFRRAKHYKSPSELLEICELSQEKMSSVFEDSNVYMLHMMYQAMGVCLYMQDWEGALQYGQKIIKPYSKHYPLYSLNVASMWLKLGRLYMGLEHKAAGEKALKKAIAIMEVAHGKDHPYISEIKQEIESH
How it was run: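 Full-length His/FLAG-tagged SMYD2 expressed in Sf9 cells with tag cleaved, 1.5 nM, pre-incubated 30 min at room temperature with compound, then 10 nM 3H-SAM and 60 nM biotinylated peptide added. Buffer 20 mM Bicine pH 7.6, 1 mM TCEP, 0.005% BSG, 0.002% Tween20, 2% DMSO. Stopped with 600 uM cold SAM; 3H-peptide captured on streptavidin Flashplate; IC50 by curve fit.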

SMILES: Cc1cn(CCN2CCN(c3ccccc3-c3cc(C#N)cc(C(=O)NCCCN4CCCC4)c3)CC2)c2ccccc12 [LLY-507]
- inhibition of proliferation of cancer cell lines [1]: inhibited the proliferation

SMILES: CC(C)N1C[C@H](NC(=O)c2cc(C3CC3)on2)[C@@](C)(O)C1 [compound 246, 5-cyclopropyl-N-[(3S,4S)-4-hydroxy-4-methyl-1-(propan-2-yl)pyrrolidin-3-yl]-1,2-oxazole-3-carboxamide]
- IC50 (SMYD2): > 50 µM

SMILES: CC(N1C[C@@H](C)[C@H](NC(=O)c2cc(C3CC3)on2)C1)C(F)(F)F (stereo partly drawn) [compound 247, trans-5-cyclopropyl-N-[(3S,4R)-4-methyl-1-(1,1,1-trifluoropropan-2-yl)pyrrolidin-3-yl]-1,2-oxazole-3-carboxamide]
- IC50 (SMYD2): > 50 µM

— US20170253601A1, “Substituted Pyrrolidine Compounds” (EPIZYME, INC., priority 2014, published 2017)
